These results are taken from patent US3985742A, “Process for preparing 3-hydroxymethyl cephalosporins” (priority 1975, dated 1976).

SMILES strings stand for the structures. Structures can show the parent of a compound that is named as a salt. Where two headings read alike, the source gives them in different places. Bounds are passed on as bounds.

In series [1] the test system is Vibrio percolans MB-1272. Briefly: disc-plate bioassay using Vibrio percolans. The note with it: Comamonas terrigena; for zone of inhibition at 100 µg/mL: MB1272, read-out: disc zone size, 100γ/ml.
Series [2] relates to Escherichia coli W-MB-60. Put plainly: disc zone bioassay of derivatives. The series is classed as cell-based. The note with it: WMB60, 100γ/ml, read-out: disc zone size. An excerpt: (§1) Bioassay: the disc zone sizes in the following table are expressed in mm. for 100γ/ml of antibiotic.
(§2) Bioassay: The disc zone sizes in the following table are expressed in mm. for equal concentrations of antibiotic.

Series [3] deals with Pseudomonas stutzeri MB-1231. Briefly: disc zone bioassay of derivatives. The class given is cell-based. The following applies: Stutzerimonas stutzeri, MB1231, 100γ/ml; read-out: disc zone size.
Text: as §1
(§3) Bioassay: the disc zone sizes in the following table are expressed in mm. for equal concentrations of antibiotic.
as §2

In series [4] the test system is Salmonella gallinarum MB-1287. Briefly: disc zone bioassay of derivatives. The series is classed as cell-based. The following applies: Salmonella enterica, 100γ/ml, read-out: disc zone size.
Text: as §3, §2

Series [5] relates to Proteus vulgaris. Put plainly: disc-plate bioassay using Proteus vulgaris. The note with it: for zone of inhibition at 100 µg/mL: read-out: disc zone size.
Series [6] concerns Aerobacter cloacae MB-2646. Put plainly: enzymatic inactivation by cell-free extract. The following applies: for Antibiotic Activity Remaining: start 250 μg/ml. On the procedure: The ability of Antibiotic 810A and cephalosporin C to withstand the degradative effect of the culture Aerobacter cloacae (MB-2646) was also determined. This culture is gram-negative and resistant to cephalosporin C. […] The source of the inactivating substance is a 1:160 dilution of the filtrate of an 18 hour 37° C. shake culture of Aerobacter cloacae MB-2646 in nutrient broth containing 0.2% yeast extract. Table XIV, infra, indicates the percent inactivation of Antibiotic 810A, cephalothin, cephaloridine and cephalosporin C on Vibrio percolans (MB-1272) via this method:
Using the same assay procedure as described above, Table XV, infra, indicates the relative resistance of Antibiotic 810A to enzymatic inactivation by Aerobacter cloacae. The starting concentration is 250 μg./ml. Results are expressed in μg./ml.

Series [7] concerns Proteus morganii 3202. Briefly: mouse protection test. The series is classed as in vivo, mice. On the set-up: dose or concentration left out as unconfirmed. The note with it: × 2 doses, subcutaneous. The method, then:
Methods: The method employed in this characterization is as follows: Female white Swiss mice, average weight 20-23 grams, were infected intraperitoneally with 3-20 times the number of organisms calculated to be lethal for 50% of the infected control animals (3-20 LD50 doses). At the time of infection and again 6 hours later, therapy was given by the designated route. Controls of the virulence of the culture and the toxicity of the antibiotic for uninfected mice were included in the tests. Seven days after infection the test was considered complete and the amount of the antibiotic (I) that would be required to protect 50% of the infected and treated animals was calculated by the method of Knudsen and Curtis; J. Amer. Stat. Assoc. Vol. 42: page 282 (1947).
The method employed in these studies is the same as described above with regard to the in vivo characterization of 810A. The results of these tests are described below in Table XIb:
Administration was by subcutaneous injection. At the completion of the test period, usually seven days after administration, the amount of product required to protect 50% of the mice (ED50) from this otherwise fatal injection was calculated: […]

Series [8] has as its system Proteus morganii 356. Put plainly: mouse protection test, clinical isolate. The class given is in vivo, mice. The following applies: subcutaneous × 2 doses. From the text: In addition to the aforementioned in vivo trials of the product, a clinical isolate of Proteus morganii 356 which is resistant to cephalosporins and capable of degrading cephalosporin C, was employed in a mouse protection test performed in the same manner as reported above.

Series [9] deals with Escherichia coli 236. Put plainly: bacterial inactivation. The following applies: 4 hours; assayed on B. subtilis (MB-964). On the procedure:
(§4) These cultures are: Escherichia coli 236, Proteus morganii 251, Proteus morganii 356 and Proteus mirabilis 241. […] In conducting the assay, individual mixtures of the organisms and one of the antibiotics were sampled after four hours incubation and assayed for residual antibiotic activity. The procedure is the same assay method as described above against Alcaligenes faecalis MB-9 and A. viscosus MB-12.

For series [10], the system named is Proteus mirabilis 241. Put plainly: bacterial inactivation. The following applies: 4 hours; assayed on B. subtilis (MB-964). The method, then:
as §4

For series [11], the system named is Proteus morganii 251. Briefly: bacterial inactivation. The note with it: 4 hours; assayed on B. subtilis (MB-964). The method, then: as §4
Series [12] has as its system Proteus morganii 356. Put plainly: bacterial inactivation. The following applies: 4 hours; assayed on B. subtilis (MB-964). The method, then:
as §4

The test system of series [13] is Alcaligenes faecalis MB-9. Briefly: bacterial inactivation by washed bacterial cells. The note with it: start 4 mg/ml.
Series [14] has as its system Alcaligenes viscosus MB-12. Put plainly: bacterial inactivation by washed bacterial cells. The note with it: 4 hour; assayed on B. subtilis (MB-964); start 4 mg/ml.
The subject of series [15] is Proteus vulgaris. Briefly: disc-plate agar diffusion, antibacterial spectrum. The series is classed as cell-based. The following applies: 166 μg/ml, 37 °C, 7 mm = no zone, read-out: Inhibition Zone Diameter.
The subject of series [16] is Pseudomonas aeruginosa. Put plainly: disc-plate agar diffusion, antibacterial spectrum. The class given is cell-based. The note with it: 166 μg/ml, 25 °C, 7 mm = no zone, read-out: Inhibition Zone Diameter.
The test system of series [17] is Serratia marcescens. Briefly: disc-plate agar diffusion, antibacterial spectrum. The series is classed as cell-based. The note with it: 166 μg/ml, 25 °C, 7 mm = no zone, read-out: Inhibition Zone Diameter. (A growth-free zone around the sample is the usual read-out of agar diffusion tests.)
For series [18], the system named is Staphylococcus aureus. Briefly: disc-plate agar diffusion, antibacterial spectrum. The series is classed as cell-based. The note with it: 166 μg/ml, 25 °C, 7 mm = no zone, read-out: Inhibition Zone Diameter.
Series [19] relates to Sarcina lutea. Put plainly: disc-plate agar diffusion, antibacterial spectrum. The series is classed as cell-based. The note with it: Micrococcus luteus; 166 μg/ml; 25 °C; 7 mm = no zone; read-out: Inhibition Zone Diameter.
For series [20], the system named is Staphylococcus aureus (Streptomycin-Streptothricin-resistant). Briefly: disc-plate agar diffusion, antibacterial spectrum. The series is classed as cell-based. The note with it: read-out: Inhibition Zone Diameter.
Series [21] deals with Streptococcus faecalis. Briefly: disc-plate agar diffusion, antibacterial spectrum. The series is classed as cell-based. The note with it: Enterococcus faecalis; 166 μg/ml; 37 °C; 7 mm = no zone; read-out: Inhibition Zone Diameter.
The subject of series [22] is Alcaligenes faecalis. Briefly: disc-plate agar diffusion, antibacterial spectrum. The class given is cell-based. The following applies: 166 μg/ml, 37 °C, 7 mm = no zone, read-out: Inhibition Zone Diameter.
The test system of series [23] is Brucella bronchiseptica. Put plainly: microbe, parasite or virus in culture. The series is classed as cell-based. The note with it: Bordetella bronchiseptica, read-out: Inhibition Zone Diameter.
Series [24] relates to Vibrio percolans. Put plainly: disc-plate agar diffusion, antibacterial spectrum. The note with it: Comamonas terrigena; 166 μg/ml; 27 °C; 7 mm = no zone; read-out: Inhibition Zone Diameter. The series is classed as cell-based.
Series [25] relates to Escherichia coli, Streptothricin-resistant. Briefly: cross-resistance, disc-plate agar diffusion. The class given is cell-based. The following applies: read-out: Inhibition Zone Diameter.
The subject of series [26] is Escherichia coli, Chloramphenicol-resistant. Put plainly: cross-resistance, disc-plate agar diffusion. The following applies: read-out: Inhibition Zone Diameter. The class given is cell-based.
Series [27] has as its system Escherichia coli, Oxytetracycline-resistant. Briefly: cross-resistance, disc-plate agar diffusion. The series is classed as cell-based. The following applies: read-out: Inhibition Zone Diameter.
For series [28], the system named is Escherichia coli, Neomycin-resistant. Briefly: cross-resistance, disc-plate agar diffusion. The class given is cell-based. The following applies: read-out: Inhibition Zone Diameter.
Series [29] relates to Escherichia coli, Viomycin-resistant. Put plainly: cross-resistance, disc-plate agar diffusion. The series is classed as cell-based. The following applies: read-out: Inhibition Zone Diameter.
The subject of series [30] is Escherichia coli W-MB-60. Put plainly: special effects spectrum, disc-plate agar diffusion. The series is classed as cell-based. The following applies: WMB60, 166 μg/ml, read-out: Inhibition Zone Diameter.
[31] abbreviates: 2 hour, assayed on B. subtilis 964.
Where [32] appears, read: 2 hour, assayed on V. percolans 1272.
[33] abbreviates: 2 hour, assayed on V. percolans (MB-1272).

Regarding `CO[C@@]1(NC(=O)CCC[C@@H](N)C(=O)O)C(=O)N2C(C(=O)O)=C(COC(N)=O)CS[C@@H]21`, in series [1] (MB1272, read-out: concentration giving a 25 mm zone, Vibrio percolans), the IC (25 mm zone) is 8 µg/mL.

For the compound `CO[C@@]1(NC(=O)CCC[C@@H](N)C(=O)O)C(=O)N2C(C(=O)O)=C(CSc3nc(C)cs3)CS[C@@H]21` [7β-(D-5-amino-5-carboxyvaleramido)-3-(4-methylthiazol-2-ylmercaptomethyl)-7-methoxy-3-cephem-4-carboxylic acid], the zone of inhibition at 100 µg/mL in series [2] turned out to be 14 mm; in series [3], 13.5 mm; in series [1] it was 20 mm.

For `CO[C@@]1(NC(=O)CCC[C@@H](N)C(=O)O)C(=O)N2C(C(=O)O)=C(CN)CS[C@@H]21` [7β-(D-5-amino-5-carboxyvaleramido)-3-(aminomethyl)-7-methoxy-3-cephem-4-carboxylic acid], the zone of inhibition at 100 µg/mL in [3] and in [4] was 21 mm throughout. The zone of inhibition at 5 µg/mL in series [1] (MB1272, read-out: disc zone size, 5γ/ml) stood at 20 mm.

Regarding `COC(=Cc1ccc(O)cc1)C(=O)OCC1=C(C(=O)O)N2C(=O)[C@](NC(=O)CCC[C@@H](N)C(=O)O)(OC)[C@H]2SC1` [7β-(D-5-amino-5-carboxyvaleramido)-3-(α-methoxy-p-hydroxycinnamoyloxymethyl)-7-methoxy-3-cephem-4-carboxylic acid], the IC (25 mm zone) in series [5] (read-out: concentration giving a 25 mm zone (bioassay potency)) was determined as 167 µg/mL.

For `O=C(Cc1cccs1)N[C@@H]1C(=O)N2C(C(=O)[O-])=C(C[n+]3ccccc3)CS[C@H]12` [Cephaloridine], the “Antibiotic Activity Remaining” value in [6] (setting [31]) and in series [6] (setting [32]) was below 10 µg/mL throughout. Moreover, in series [6] (bacterial culture filtrate, 2 h), the “Percent Inactivation After Incubation With Cell-Free Extract” value came out at 96%. Further, the protection entry in series [7] was “failed to protect”. Further, the “ED50 (average of Two Trials)” value in series [8] is 9,270 μg.

With `CC(=O)OCC1=C(C(=O)O)N2C(=O)[C@@H](NC(=O)CCC[C@@H](N)C(=O)O)[C@H]2SC1` [Cephalosporin C, reference compound], the “Percent Inactivation After Incubation With Cell-Free Extract” value in [6] (setting [33]) came out at 96%. Further, the percent inactivation is given as above 99% in series [9], 72% in series [10], above 99% in series [11] and above 99% in series [12]. The “Percent Inactivation After Incubation With Washed Bacterial Cells” value in series [13] (3 hour, assayed on B. subtilis (MB-964)) is above 99%; in series [13] (3 hour, assayed on V. percolans (MB-1272)) it was above 99%; in series [13] (4 hour, assayed on B. subtilis (MB-964)), above 99%; in series [14], above 99%.

With `CC(=O)OCC1=C(C(=O)O)N2C(=O)[C@@H](NC(=O)Cc3cccs3)[C@H]2SC1` [Cephalothin], the “Percent Inactivation After Incubation With Cell-Free Extract” value in series [6] (setting [33]) amounted to 66%. Also, the “Antibiotic Activity Remaining” value in series [6] (setting [31]) is 140 µg/mL; in series [6] (setting [32]) it was 85 µg/mL. For the same compound, the protection result in [7] is on record as “failed to protect”. Besides, in series [8], the “ED50 (average of Two Trials)” value is > 20,000 μg.

With `CO[C@@]1(NC(=O)CCC[C@@H](N)C(=O)O)C(=O)N2C(C(=O)O)=C(COC(N)=O)CS[C@@H]21` [Disodium Salt of 842A], the zone of inhibition at 100 µg/mL stood at 18 mm in series [2]; 22 mm in [3]; 27 mm in series [4]; 18 mm in series [1]; 27 mm in series [5].

Take `CO[C@@]1(NC(=O)CCC[C@@H](N)C(=O)O)C(=O)N2C(C(=O)O)=C(COC(N)=O)CS[C@@H]21` [Free Acid]: the zone of inhibition at 166 µg/mL was 22 mm in series [15]; 7 mm in [16]; 7 mm in [17]; 7 mm in [18]; 10 mm in series [19]; 11 mm in series [20]. Moreover, the zone of inhibition at 166 µg/mL in [21] was found to be 7 mm; in series [22], 27 mm; in series [23], 24 mm; in series [24], 30 mm; in series [25], 14 mm; in series [26], 17 mm. In addition, the zone of inhibition at 166 µg/mL in series [27] was found to be 23 mm; in [28] it was 17 mm; in [29] it was 16 mm; in [30] (0.1 M phosphate buffer pH 7, 25 °C), 29 mm; in series [30] (0.1 M phosphate buffer pH 9, 25 °C), 22 mm; in [30] (human blood plasma 20%, 25 °C), 22 mm.

Consider `CO[C@@]1(NC(=O)CCC[C@@H](N)C(=O)O)C(=O)N2C(C(=O)O)=C(CSC(=N)N)CS[C@@H]21` [S-[7β-(D-5-amino-5-carboxyvaleramido)-4-carboxy-7-methoxy-3-cephem-3-yl-methyl]thiouronium], for which the zone of inhibition at 100 µg/mL is 22 mm in [3], 23 mm in series [4], 27 mm in series [1] and 17 mm in [5].
